We go through six molecules from article PMC10859961, “Ir(III) Half-Sandwich Photosensitizers with a π-Expansive Ligand for Efficient Anticancer Photodynamic Therapy” (Journal of Medicinal Chemistry, 2024).

In general, IC50 refers to the concentration that gives 50% inhibition.

The conditions of data set [1]: H2O/DMSO (95:5); cited from earlier work.
For data set [2] the following is noted: degassed acetonitrile; cited from earlier work.
Data set [3] can be described thus: 1O2 quantum yield determination with DPBF. The conditions noted are these: acetonitrile. As for the experimental part: It was performed for complexes 1–8 in acetonitrile according to a relative procedure adapted from the literature[132]−[134] based on monitoring the oxidation of 1,3-diphenylisobenzofuran (DPBF, yellow) to 1,2-dibenzoylbenzene (colorless) photosensitized by the Ir(III) complexes. DPBF was used as an ^1O2 scavenger due to its fast reaction with this molecule. Fresh stock air-equilibrated solutions of photosensitizers (6.00 × 10^–6 M) and DPBF (1.50 × 10^–4 M) in acetonitrile were prepared. In a quartz cell, 1 mL of DPBF solution, 0.5 mL of complex solution, and 1.5 mL of acetonitrile were mixed to prepare a final solution with 5.00 × 10^–5 M DPBF and 1.00 × 10^–6 M complex. The final solutions were studied by recording UV–vis absorption spectra at room temperature in dark conditions (over a period of 6 min with time intervals of 2 min), under blue light irradiation (λexc = 470 nm, “Medusa” photoreactor) and under green light irradiation (λexc = 530 nm, “Medusa” photoreactor) for 5 s irradiation intervals during a total exposure period of 20 s. Absorption UV–vis spectra were recorded after every irradiation interval.
The consumption of DPBF probe was measured by monitoring its absorbance intensity decrease at 410 nm with irradiation time. ^1O2 generation quantum yield (ϕΔ) was calculated from eq 1 using Rose Bengal or [Ru(bpy)3]^2+ as reference for complexes with pbpz and pbpn ligands, respectively: [drawing 22] 1 where s and ref subscripts correspond to the complex and the reference, ϕΔ is the ^1O2 generation quantum yield (0.53 for Rose Bengal[135] and 0.56 for [Ru(bpy)3]Cl2[132] in degassed acetonitrile), S is the slope of the plots of the −ln(normalized absorbance) of DPBF at 410 nm vs the irradiation time, and F is the correction factor of absorption, which is given by F = 1–10^–O.D. (where O.D. is the optical density at 470 nm of solutions of complexes and references). The reproducibility of the results was confirmed by performing each experiment three times.
The stability of DPBF probe was studied in dark conditions and under light irradiation. In dark conditions and under green light irradiation the probe remains unaltered. However, under blue light irradiation, a photobleaching of DPBF was observed. Probe consumption was approximately 6.5% every 5 s. Therefore, a working interval of 20 s was chosen, where 75% of the probe remains stable. To calculate the ϕΔ, a correction factor was applied to the absorbance at 410 nm: a 6.5% of the previous value was added to each absorbance to counteract self-consumption of the probe (i.e., to the absorbance at 10 s, a 6.5% of the absorbance at 5 s was added).

The subject of a further data set is SK‐MEL28. Conditions: visible light, dose 100 J cm‐2, ref m (Inorg. Chem. 2016, 55, 83); cited from earlier work.
For another data set, the system named is CT26. Details: method as in p (Pozza et al., Inorg. Chem. 2023). The conditions noted are these: 540 nm, dose 9 J cm‐2, ref p (Pozza et al., Inorg. Chem. 2023); cited from earlier work.
For a further data set, the system named is HT29. On the set-up: method as in p (Pozza et al., Inorg. Chem. 2023). The conditions noted are these: 540 nm, dose 9 J cm‐2, ref p (Pozza et al., Inorg. Chem. 2023); cited from earlier work.
The subject of the next data set is RPE‐1. Details: method as in p (Pozza et al., Inorg. Chem. 2023). The conditions noted are these: cited from earlier work.
The next data set relates to A549 cancer cells. In words: MTT cell viability assay, dark or photoactivated. It is filed as cell-based, human. The conditions noted are these: 4 h incubation, kept in the dark, viability after 48 h, MTT, read-out: IC50 dark. As for the experimental part: Cells were cultured in 96-well plates at a density of 3000 (A549), 2500 (HeLa), or 5000 (PC-3, 1BR.3.G, and MRC-5) cells per well in cell culture medium and allowed to attach for 24 h. Solutions of the complexes at different concentrations were prepared for cell treatments. In all cases, the solid compounds were weighed using an analytical balance (Mettler Toledo AX205DR) to ensure precise measurements. Subsequently, 5 mM solutions were prepared using DMSO. Solutions were then diluted in water to reach a concentration of 1 mM and then, aliquots were taken and diluted in culture medium to obtain solutions ranging from 0 to 50 μM. […] The cells were treated with these solutions in dark conditions or following the photoactivation protocol (see below). 48 h later the treatments were removed, and cells were washed with phosphate-buffered saline (PBS).
Initially, the effect of the complexes on the cell viability was determined by the 3-(4,5-dimethylthiazol-2-yl)-2,5-diphenyltetrazolium bromide (MTT) assay.[147] The cells were incubated for 2 h with 100 μL of culture medium together with 10 μL of MTT (Sigma-Aldrich) at 0.5 mg/mL. After discarding the medium, DMSO was added to each well to dissolve the purple formazan crystals. The absorbance of each well was determined on a Multiscan Plate Reader (Synergy 4, Biotek, Winooski) at a wavelength of 570 nm. Cell viability was also assessed using the CyQUANT Direct Cell Proliferation Assay (Thermo Fisher Scientific), following the manufacturer’s instructions. Briefly, after the treatments, the cells were washed with PBS, and an equal volume of culture medium and CyQUANT mix was added to each well. The plates were then incubated for 1 h at 37 °C. Subsequently, the fluorescence intensity was bottom read using a Multiscan Plate Reader (Synergy 4, Biotek, Winooski) with excitation and emission filters of 485 and 528 nm, respectively. In both assays, at least three replicates were measured for each treatment. The concentration that reduces the cell viability by 50% (IC50) was established using the Gen5 software (BioTek). Three independent experiments were carried out for each compound. […] The phototoxicity index (PI = IC50,dark/IC50,light) was determined.
To assess the photodynamic activity of the complexes, cells were incubated with the complexes for 4 h to enable their intracellular accumulation. The cells were then irradiated with light with a wavelength of 460 nm (blue), 530 nm (green), or 655 nm (red) for 1 h using a LED system (LuxLight) with an effective power of 6.7 mW cm^–2, which provides a total light dose of 24.1 J cm^–2. The LED system was positioned at 25 mm from the cell culture plates.
In general terms: Formazan colour is commonly taken as a measure of viable cells.

A short description of data set [4]: pKa determination (absorbance vs pH). Conditions: H2O/DMSO (98/2, v/v) solution; DMSO/H2O (2/98, v/v), Bu4NBF4 5 mM; piperidine ring; read-out: pKa. Format: physicochemical. How it is done:
Solutions of complexes 5 and 6 (2.00 × 10^–5 M) and Imepip ligand (2.00 × 10^–3 M) in H2O/DMSO (98/2, v/v) mixture with n-Bu4NBF4 (5 mM) were prepared. The presence of the salt ensured the conductivity of the media. Evolution of the peaks was studied at different pH by recording the absorbance spectrum. Aliquots of 10 μL of HCl (0.002–0.020 M) or NaOH (0.002–0.020 M) were added to a solution of 2.4 mL of complex to vary the pH. The absorbance versus pH plot enables us to determine one constant according to the equation from the Wilson and Lester method (eq 2):[146] [drawing 23] 2 where Aa is the absorbance for the acid species, Ab is the absorbance for the basic species, and Am is the absorbance of the mixture. The intersection obtained by representing log(Am – Aa)/(Ab – Am) versus pH provides the pKa.

The next data set concerns HeLa. The conditions noted are these: 425 nm, dose 1.2 J cm‐2, ref e (ACS Appl. Mater. Interfaces, 2017, 9, 42471; main text ref 24); cited from earlier work.
For another data set, the system named is A549. Conditions: 425 nm, dose 1.2 J cm‐2, ref e (ACS Appl. Mater. Interfaces, 2017, 9, 42471; main text ref 24); cited from earlier work.
Setting [5] is: 540 nm, dose 9 J cm‐2, ref p (Pozza et al., Inorg. Chem. 2023).
Where [6] appears, read: 620 nm, dose 6.7 J cm‐2, ref p (Pozza et al., Inorg. Chem. 2023).

Like-named read-outs stand apart in the source and are kept apart here.

Take `O=C([O-])c1c(Cl)c(Cl)c(Cl)c(Cl)c1-c1c2cc(I)c(=O)c(I)c-2oc2c(I)c([O-])c(I)cc12.[Na+].[Na+]` [Rose Bengal]: the “1O2 generation quantum yield (ϕΔ) of reference” value in [1] was 0.76; in [2] it was 0.53.
For the molecule `[Cl][Ru][Cl].c1ccc(-c2ccccn2)nc1.c1ccc(-c2ccccn2)nc1.c1ccc(-c2ccccn2)nc1` [[Ru(bpy)3]Cl2, reference compound], the “1O2 generation quantum yield (ϕΔ) of reference” value in data set [1] is listed as 0.18; in data set [2], 0.56. Moreover, the “Slope (S) of ‐ln(normalized Abs) vs time, photooxidation of DPBF” value in data set [3] (λir = 470 nm) amounted to 0.0535; in data set [3] (λir = 530 nm), 0.0057.
In the case of `[Ru+2].[c-]1cccc2c1c1ncccc1c1nc3cc4ccccc4cc3nc21.c1ccc(-c2ccccn2)nc1.c1ccc(-c2ccccn2)nc1` [[Ru(bpy)2(pbpn)]+], in the data set on SK‐MEL28, the PI is on record as > 1400 and the PI/Dose is given as > 140.
On to `[Ru+2].c1ccc2cc3nc4c5cccnc5c5ncccc5c4nc3cc2c1.c1ccc2cc3nc4c5cccnc5c5ncccc5c4nc3cc2c1.c1cnc2c(c1)ccc1cccnc12` [[Ru(dppn)2(phen)]2+], for which the PI in the data set on CT26 is given as 1666; with HT29, 556; in the data set on RPE‐1 (setting [5]), 556; in the data set on RPE‐1 (setting [6]), 333. Moreover, the PI/Dose is listed as 185.1 in the data set with CT26, 61.8 with HT29, 61.8 with RPE‐1 (setting [5]) and 49.7 in the data set with RPE‐1 (setting [6]).
For `c1cn(CCN2CCCCC2)cn1` [(N-ethylpiperidyl)imidazole, reference compound], the IC50 with A549 cancer cells (A549) was 68 ± 2 µM; with A549 cancer cells (Homo sapiens, A549, A549) it was > 50 µM. Moreover, the pKa in data set [4] came out at 7.1.
As to `F[P-](F)(F)(F)(F)F.[Ir+3].[c-]1ccccc1-c1ccccn1.[c-]1ccccc1-c1ccccn1.c1ccc2cc3[nH]c(-c4ccc5ccccc5n4)nc3cc2c1` [[Ir(N^∧N)(ppy)2]PF6], the PI/Dose in the data set on HeLa is recorded as 397; in the data set on A549 it was 268.
